Experimental data taken from US10239882B2, “Substituted 5-methyl-[1,2,4]triazolo[1,5-a]pyrimidin-2-amine compounds as PDE2 inhibitors” (DART NEUROSCIENCE (CAYMAN) LTD., priority 2014, dated 2019).
pIC50: −log10 of the molar value.

Each compound was assayed against FLAG-tagged PDE2A1 (amino acids 2-941) (Homo sapiens (Human), UniProt O00408) (assay: IMAP TR-FRET PDE2A enzymatic assay). Settings: 200 nM FAM-cAMP substrate, 11-point half-log dose-response.
Type: biochemical
Description: An IMAP TR-FRET-based phosphodiesterase assay was developed using the PDE2A isoform. IMAP technology is based on high-affinity binding of phosphate by immobilized metal (MIII) coordination complexes on nanoparticles. The IMAP “binding reagent” recognizes phosphate groups on AMP or GMP generated from cAMP or cGMP in a PDE reaction. Cyclic nucleotides that carry a phosphodiester bond and not a free phosphate are not recognized by the binding reagent. The time resolved fluorescence resonance energy transfer (TR-FRET) is afforded by a Terbium (Tb)-Donor pre-bound to the nanoparticles. FRET occurs when the fluorescent-labeled AMP or GMP product of a PDE reaction binds and comes into close proximity to the Tb-Donor complex. Due to the long lifetime of Tb fluorescence, detection can be run in time-resolved mode to reduce or eliminate interference from auto-fluorescent compounds.
The IMAP TR-FRET PDE2A assay was performed in 1536-well white plates. A total of 250 pg per well of FLAG-tagged PDE2A1 (amino acids 2-941) was dispensed in 2.5 μL IMAP assay buffer consisting of 10 mM Tris pH 7.2, 10 mM MgCl2, 1 mM DTT, and 0.1% fatty acid free BSA. 30 nL of compound was then added from 1 mM stocks in DMSO using a Kalypsys Pintool. Plates were incubated for 5 min at room temperature before dispensing 1.5 μL of 533 nM FAM-cAMP substrate for a final concentration of 200 nM. Following a brief centrifugation, plates were incubated for 30 min at room temperature. The assay was terminated by adding 5 μL IMAP binding reagent Tb complex to each well which was prepared according to manufacturer's recommendations (Molecular Devices). Plates were incubated an additional 90 minutes at room temperature and read on a Viewlux plate reader. All compounds were solvated at a concentration of 10 mM in DMSO and tested in 11-point half-log dose-response. Curve fitting and IC50 values were determined using a standard four parameter fit.

Sequence of FLAG-tagged PDE2A1 (amino acids 2-941) (O00408 2-941): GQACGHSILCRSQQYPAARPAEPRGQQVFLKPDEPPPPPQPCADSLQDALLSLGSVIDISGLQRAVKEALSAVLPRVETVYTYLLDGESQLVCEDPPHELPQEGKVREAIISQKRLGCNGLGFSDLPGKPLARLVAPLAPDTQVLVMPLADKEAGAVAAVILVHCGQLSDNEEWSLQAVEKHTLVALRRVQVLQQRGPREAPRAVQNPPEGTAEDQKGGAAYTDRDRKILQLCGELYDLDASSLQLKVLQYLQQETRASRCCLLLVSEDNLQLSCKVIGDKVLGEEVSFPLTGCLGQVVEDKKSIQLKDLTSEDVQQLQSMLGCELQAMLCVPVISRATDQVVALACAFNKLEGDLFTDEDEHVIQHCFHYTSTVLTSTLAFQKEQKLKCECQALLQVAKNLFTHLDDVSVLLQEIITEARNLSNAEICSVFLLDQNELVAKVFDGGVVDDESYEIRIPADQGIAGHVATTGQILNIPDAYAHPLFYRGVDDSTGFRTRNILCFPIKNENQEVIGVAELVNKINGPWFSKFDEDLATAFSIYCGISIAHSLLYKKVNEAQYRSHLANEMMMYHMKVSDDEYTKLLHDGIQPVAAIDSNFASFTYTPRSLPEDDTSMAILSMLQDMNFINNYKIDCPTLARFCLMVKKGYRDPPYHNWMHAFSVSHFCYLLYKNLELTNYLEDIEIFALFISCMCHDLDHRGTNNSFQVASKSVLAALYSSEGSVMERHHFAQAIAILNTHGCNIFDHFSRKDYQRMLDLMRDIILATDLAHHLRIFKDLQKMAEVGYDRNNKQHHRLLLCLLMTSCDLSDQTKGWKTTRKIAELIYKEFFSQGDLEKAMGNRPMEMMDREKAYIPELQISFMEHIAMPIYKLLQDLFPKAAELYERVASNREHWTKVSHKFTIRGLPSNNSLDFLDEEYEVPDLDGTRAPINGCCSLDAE

SMILES | PDE2 (PIC50)
Cc1cc(C2CCOCC2)n2nc(NCc3cnn(-c4ccccc4C)c3)nc2n1 [Example 36, 5-Methyl-N-{[1-(2-methylphenyl)-1H-pyrazol-4-yl]methyl}-7-(oxan-4-yl)-[1,2,4]triazolo[1,5-a]pyrimidin-2-amine] | >7
COc1ccc(CNc2nc3nc(C(F)F)cc(C4CCOCC4)n3n2)cc1 [Example 29, 5-(Difluoromethyl)-N-[(4-methoxyphenyl)methyl]-7-(oxan-4-yl)-[1,2,4]triazolo[1,5-a]pyrimidin-2-amine] | >7
Cc1cc(C2CCOCC2)n2nc(NCc3cc(F)cc(Br)c3)nc2n1 [Example 81, N-[(3-Bromo-5-fluorophenyl)methyl]-5-methyl-7-(oxan-4-yl)-[1,2,4]triazolo[1,5-a]pyrimidin-2-amine] | >7
Cc1cc(C2CCOCC2)n2nc(NCc3cccc(Br)c3F)nc2n1 [Example 83, N-[(3-Bromo-2-fluorophenyl)methyl]-5-methyl-7-(oxan-4-yl)-[1,2,4]triazolo[1,5-a]pyrimidin-2-amine] | >7
COc1cc(F)c(CNc2nc3nc(C)cc(C4CCOCC4)n3n2)c(F)c1 [Example 50, N-[(2,6-Difluoro-4-methoxyphenyl)methyl]-5-methyl-7-(oxan-4-yl)-[1,2,4]triazolo[1,5-a]pyrimidin-2-amine] | >7
Cc1cc(CNc2nc3nc(C)cc(C4CCOCC4)n3n2)cc(C)n1 [Example 53, N-[(2,6-Dimethylpyridin-4-yl)methyl]-5-methyl-7-(oxan-4-yl)-[1,2,4]triazolo[1,5-a]pyrimidin-2-amine] | >7
COc1ccc(CNc2nc3nc(C)cc(C4(F)CCOCC4)n3n2)cc1 [Example 55, 7-(4-Fluorooxan-4-yl)-N-[(4-methoxyphenyl)methyl]-5-methyl-[1,2,4]triazolo[1,5-a]pyrimidin-2-amine] | >7
Cc1cc(C2(C)CC2)n2nc(NCc3cn(-c4ccccc4)nc3C)nc2n1 [Example 76, 5-Methyl-N-[(3-methyl-1-phenyl-1H-pyrazol-4-yl)methyl]-7-(1-methylcyclopropyl)-[1,2,4]triazolo[1,5-a]pyrimidin-2-amine] | >7
Cc1cc(C2CCOCC2)n2nc(NCc3cccc(Cl)c3)nc2n1 [Example 40, N-[(3-Chlorophenyl)methyl]-5-methyl-7-(oxan-4-yl)-[1,2,4]triazolo[1,5-a]pyrimidin-2-amine] | >7
Cc1cc(C(C)C)n2nc(NCc3cn(-c4ccccc4)nc3C)nc2n1 [Example 74, 5-Methyl-N-[(3-methyl-1-phenyl-H-pyrazol-4-yl)methyl]-7-(propan-2-yl)-[1,2,4]triazolo[1,5-a]pyrimidin-2-amine] | >7

Same assay, conditions: 200 nM FAM-cAMP substrate, 11-point half-log dose-response, read-out: PDE2 (PIC50)

SMILES | pIC50
Cc1cc(C(C)(C)C)n2nc(NCc3cccc(Cl)c3)nc2n1 [Example 9, 7-(tert-Butyl)-N-(3-chlorobenzyl)-5-methyl-[1,2,4]triazolo[1,5-a]pyrimidin-2-amine] | 6.00 to 7.00
Cc1cc(C2CCOCC2)n2nc(NCc3ccccc3Cl)nc2n1 [Example 48, N-[(2-Chlorophenyl)methyl]-5-methyl-7-(oxan-4-yl)-[1,2,4]triazolo[1,5-a]pyrimidin-2-amine] | 6.00 to 7.00
COc1ccc(CNc2nc3nc(C)cc(C(C)(C)OC)n3n2)cc1 [Example 77, N-[(4-Methoxyphenyl)methyl]-7-(2-methoxypropan-2-yl)-5-methyl-[1,2,4]triazolo[1,5-a]pyrimidin-2-amine] | 5.00 to 6.00
Cc1cc(C(C)C)n2nc(NCc3ccccc3)nc2n1 [Example 8, N-Benzyl-7-isopropyl-5-methyl-[1,2,4]triazolo[1,5-a]pyrimidin-2-amine] | 5.00 to 6.00
Cc1cc(C2CCOCC2)n2nc(NCc3cc(C#N)ccc3F)nc2n1 [Example 73, 4-Fluoro-3-({[5-methyl-7-(oxan-4-yl)-[1,2,4]triazolo[1,5-a]pyrimidin-2-yl]amino}methyl)benzonitrile] | 6.00 to 7.00
Cc1cc(C(C)C)n2nc(NCc3ccc4c(c3)CCC4)nc2n1 [Example 6, N-((2,3-Dihydro-1H-inden-5-yl)methyl)-7-isopropyl-5-methyl-[1,2,4]triazolo[1,5-a]pyrimidin-2-amine] | 6.00 to 7.00
Cc1cccc(CNc2nc3nc(C)cc(C4CCOCC4)n3n2)c1 [Example 28, 5-Methyl-N-[(3-methylphenyl)methyl]-7-(oxan-4-yl)-[1,2,4]triazolo[1,5-a]pyrimidin-2-amine] | 6.00 to 7.00
